Experiment [1] relates to inhibitory synaptic transmission onto CA1 pyramidal neurons (native opioid receptors). Format: cell-based, mouse. The conditions noted are these: CTAP 1 μM, with CNV-Y-DAMGO uncaging.
A further experiment deals with locomotion. The experiment in a line: Open field locomotion with infusion / in vivo uncaging in the VTA. The conditions noted are these: naloxone 3 mg/kg intraperitoneal before CNV-Y-DAMGO infusion and light. Details: species or system mouse.

On to CTAP, for which the “effect on optically-evoked suppression of synaptic transmission” value in experiment [1] was “completely blocked”.

As for `C=CCN1CC[C@]23c4c5ccc(O)c4O[C@H]2C(=O)CC[C@@]3(O)[C@H]1C5` [naloxone], the “effect on locomotor response to DAMGO photorelease” value with locomotion is given as “strongly attenuated”.

These data come from article PMC10569260 (Nature methods, 2023).
